{
  "source": "patent US20220193095A9",
  "about": "“PHARMACEUTICAL COMPOSITIONS” (Shenzhen Pharmacin Co., Ltd., priority 2019, published 2022)",
  "key": {"[1]": {"conditions": "cited from earlier work"}, "[2]": {"conditions": "cited from earlier work", "remark": "listed apart in the source"}, "[3]": {"assay": "Solubility of abiraterone acetate in surfactants"}, "[4]": {"assay": "Solubility of abiraterone acetate in lipids (glycerides)", "conditions": "25° C."}, "[5]": {"assay": "Solubility of abiraterone acetate in co-solvents"}, "[6]": {"assay": "Solubility of abiraterone acetate in fatty acids", "conditions": "25° C."}, "[7]": {"assay": "Solubility of abiraterone acetate in aqueous media"}, "[8]": {"assay": "Solubility of abiraterone acetate in other media"}},
  "data": [
    {"smiles": "CC(=O)O[C@H]1CC[C@@]2(C)C(=CC[C@@H]3[C@@H]2CC[C@]2(C)C(c4cccnc4)=CC[C@@H]32)C1", "note": "[Abiraterone acetate]", "values": [
      {"measurement": "solubility in water", "setting": "[1]", "value": "practically insoluble in water"},
      {"measurement": "Log P", "setting": "[2]", "value": 5.12},
      {"measurement": "Solubility", "setting": "[3]; Labrasol, 25° C.", "value": 35.4, "unit": "mg/mL"},
      {"measurement": "Solubility", "setting": "[3]; Polyethylene Glycol Oleate, 25° C.", "value": 52.7, "unit": "mg/mL"},
      {"measurement": "Solubility", "setting": "[3]; Polyoxyethylene 8 stearate, 25° C.", "value": 18.1, "unit": "mg/mL"},
      {"measurement": "Solubility", "setting": "[3]; Polyoxyethylene hydrogenated castor oil, 25° C.", "value": 10.1, "unit": "mg/mL"},
      {"measurement": "Solubility", "setting": "[3]; Tween 80, 25° C.", "value": 7.5, "unit": "mg/mL"},
      {"measurement": "Solubility", "setting": "[4]; Capryl monoglyceride", "value": 139.8, "unit": "mg/mL"},
      {"measurement": "Solubility", "setting": "[4]; Castor oil", "value": 59.6, "unit": "mg/mL"},
      {"measurement": "Solubility", "setting": "[4]; Coconut oil", "value": 30.6, "unit": "mg/mL"},
      {"measurement": "Solubility", "setting": "[4]; Corn oil", "value": 31.4, "unit": "mg/mL"},
      {"measurement": "Solubility", "setting": "[4]; Glycerol mono/di-caprylocaprate", "value": 147.0, "unit": "mg/mL"},
      {"measurement": "Solubility", "setting": "[4]; Glyceryl monooleate", "value": 37.1, "unit": "mg/mL"},
      {"measurement": "Solubility", "setting": "[4]; Isopropyl myristate", "value": 41.0, "unit": "mg/mL"},
      {"measurement": "Solubility", "setting": "[4]; Olive oil", "value": 27.3, "unit": "mg/mL"},
      {"measurement": "Solubility", "setting": "[4]; Polyglycerol fatty acid ester", "value": 10.0, "unit": "mg/mL"},
      {"measurement": "Solubility", "setting": "[4]; Propylene Glycol Monocaprylate", "value": 160.0, "unit": "mg/mL"},
      {"measurement": "Solubility", "setting": "[4]; Soybean oil", "value": 28.1, "unit": "mg/mL"},
      {"measurement": "Solubility", "setting": "[5]; Ethanol, 25° C.", "value": 61.1, "unit": "mg/mL"},
      {"measurement": "Solubility", "setting": "[5]; Glycerol, 25° C.", "value": 5.0, "unit": "mg/mL"},
      {"measurement": "Solubility", "setting": "[5]; PEG400, 25° C.", "value": 16.5, "unit": "mg/mL"},
      {"measurement": "Solubility", "setting": "[5]; Propylene glycol, 25° C.", "value": 5.0, "unit": "mg/mL"},
      {"measurement": "Solubility", "setting": "[5]; Transcutol, 25° C.", "value": 99.5, "unit": "mg/mL"},
      {"measurement": "Solubility", "setting": "[6]; Acetic acid", "value": 2386.1, "unit": "mg/mL"},
      {"measurement": "Solubility", "setting": "[6]; Butyric acid", "value": 1399.3, "unit": "mg/mL"},
      {"measurement": "Solubility", "setting": "[6]; Heptanoic acid", "value": 1325.9, "unit": "mg/mL"},
      {"measurement": "Solubility", "setting": "[6]; Linoleic acid", "value": 182.9, "unit": "mg/mL"},
      {"measurement": "Solubility", "setting": "[6]; Nonanoic acid", "value": 1084.1, "unit": "mg/mL"},
      {"measurement": "Solubility", "setting": "[6]; Oleic acid", "value": 239.0, "unit": "mg/mL"},
      {"measurement": "Solubility", "setting": "[6]; Propionic acid", "value": 2209.5, "unit": "mg/mL"},
      {"measurement": "Solubility", "setting": "[6]; Valeric acid", "value": 1104.8, "unit": "mg/mL"},
      {"measurement": "Solubility", "setting": "[6]; n-caproic acid", "value": 1572.6, "unit": "mg/mL"},
      {"measurement": "Solubility", "setting": "[6]; n-caprylic acid", "value": 1214.7, "unit": "mg/mL"},
      {"measurement": "Solubility", "setting": "[7]; FDA Dissolution medium: 0.25% SLS in 56.5 mM phosphate buffer, pH 4.5, 25° C.", "value": 0.7, "unit": "mg/mL"},
      {"measurement": "Solubility", "setting": "[7]; pH 3.0 buffer, 25° C.", "value": "<0.001", "unit": "mg/mL"},
      {"measurement": "Solubility", "setting": "[7]; pH 4.0 buffer, 25° C.", "value": "<0.001", "unit": "mg/mL"},
      {"measurement": "Solubility", "setting": "[7]; pH 5.0 buffer, 25° C.", "value": "<0.001", "unit": "mg/mL"},
      {"measurement": "Solubility", "setting": "[7]; pH 6.0 buffer, 25° C.", "value": "<0.001", "unit": "mg/mL"},
      {"measurement": "Solubility", "setting": "[7]; pH 7.4 buffer, 25° C.", "value": "<0.001", "unit": "mg/mL"},
      {"measurement": "Solubility", "setting": "[8]; 1-octanol, 25° C.", "value": 114.0, "unit": "mg/mL"},
      {"measurement": "Solubility", "setting": "[8]; Azone (Laurocapram), 25° C.", "value": 66.0, "unit": "mg/mL"},
      {"measurement": "Solubility", "setting": "[8]; Capryl monoglyceride, 25° C. (Table 11)", "value": 139.8, "unit": "mg/mL"},
      {"measurement": "Solubility", "setting": "[8]; Glycerol mono/di-caprylocaprate, 25° C. (Table 11)", "value": 147.0, "unit": "mg/mL"},
      {"measurement": "Solubility", "setting": "[8]; Glyceryl monooleate, 25° C. (Table 11)", "value": 37.1, "unit": "mg/mL"},
      {"measurement": "Solubility", "setting": "[8]; Isopropyl myristate, 25° C. (Table 11)", "value": 41.0, "unit": "mg/mL"},
      {"measurement": "Solubility", "setting": "[8]; Polyglycerol fatty acid ester, 25° C. (Table 11)", "value": 10.0, "unit": "mg/mL"},
      {"measurement": "Solubility", "setting": "[8]; Propylene Glycol Monocaprylate, 25° C. (Table 11)", "value": 160.0, "unit": "mg/mL"}
    ]}
  ]
}
